Legend:
[1] = target: T1, GR (ARR3tk-luc) in PC3 cells (Homo sapiens, UniProt P04150); assay: Nuclear receptor luciferase transcriptional assay, GR; format: cell-based; settings: 1 or 5 µM, 1 nM Dexamethasone
T1 construct: expressed in transfected cells; host or cells: PC3 cells
Description: PC3 cells (androgen receptor (AR)-, glucocorticoid receptor (GR)[…], progesterone receptor (PR)-, ER-) were starved for 72 h then seeded into a 96-well plate at a density of 5,000 cells/well. 24 h later, cells were transfected with either ER, AR, GR, or PR and a luciferase plasmid (ERE-luc for ER and ARR3tk-luc for AR, GR, and PR). 24 h post-transfection, cells were simultaneously stimulated with 1 nM E2 for ER, 0.1 nM R1881 for AR, 1 nM Dexamethasone for GR, or 1 nM Levonorgestrel for PR, and treated with 1 or 5 µM of VPC-260724 24 h post-treatment, cells were lysed with 50 µl of passive lysis buffer (Promega #E1910). 20 µl of lysate was transferred to a white flat-bottom 96-well plate (Corning Life Sciences Cat#3912). Luminescence readings were obtained using the TECAN M200 Pro plate reader following the addition of 50 µl of luciferase reagent (Promega Luciferase Assay System E1500).

[2] = Precipitation in MST assay buffer; format: physicochemical; settings: 2% DMSO, 0.03 to 1000 µM
Description: MST was used to validate the direct binding and measure the binding affinities between the lead compounds and the recombinant ER-LBD. ER-LBD was labeled with red fluorescent dye using a Protein Labeling Kit RED-NHS 2nd Generation (Nanotemper MO-L011) according to the manufacturer’s protocol. The compounds were serially diluted 1:2 in 100% DMSO from 50 to 0.0015 mM, then added to 10 nM of labeled ER protein in the assay buffer (25 mM Tris, pH 8.4, 150 mM NaCl, 20 µM E2, 0.1 mM PMSF, 0.05% Tween20) at final concentrations of 0.03 to 1000 µM. Recombinant proteins in cell free assays are not affected by DMSO concentrations up to 10%. A final concentration of 2% DMSO was chosen for MST as the compounds required this concentration to be soluble in the assay buffer. […] The corresponding data points were removed from the analysis. […] Each protein/compound mixture was then loaded into Monolith Premium Capillaries (Nanotemper MO-K025). All assays were conducted with medium MST power and 20% excitation power. Data analysis and Kd estimation were performed with the MO Affinity Analysis software from Nanotemper.

TamR3 cells = assay: PrestoBlue viability assay, TamR3; format: cell-based; settings: 1 nM E2, 72 h treatment, ± SD of 3 biological replicates
Description: T47D, MCF7, TamR3, and MDA-MB-231 cells were starved for 72 h and then seeded into black clear-bottom 96-well plates (Corning Life Sciences Cat#3904) at 20,000 cells/well (T47D, MCF7, TamR3) or 5,000 cells/well (MDA-MB-231). […] 20 µl of PrestoBlue Cell Viability Reagent (Thermo Fisher A13262) was added to each well and incubated at 37 °C for 1 h. Fluorescence intensity was measured using the TECAN F500 plate reader with emission and excitation wavelengths of […], respectively.

T1 sequence (P04150 whole entry): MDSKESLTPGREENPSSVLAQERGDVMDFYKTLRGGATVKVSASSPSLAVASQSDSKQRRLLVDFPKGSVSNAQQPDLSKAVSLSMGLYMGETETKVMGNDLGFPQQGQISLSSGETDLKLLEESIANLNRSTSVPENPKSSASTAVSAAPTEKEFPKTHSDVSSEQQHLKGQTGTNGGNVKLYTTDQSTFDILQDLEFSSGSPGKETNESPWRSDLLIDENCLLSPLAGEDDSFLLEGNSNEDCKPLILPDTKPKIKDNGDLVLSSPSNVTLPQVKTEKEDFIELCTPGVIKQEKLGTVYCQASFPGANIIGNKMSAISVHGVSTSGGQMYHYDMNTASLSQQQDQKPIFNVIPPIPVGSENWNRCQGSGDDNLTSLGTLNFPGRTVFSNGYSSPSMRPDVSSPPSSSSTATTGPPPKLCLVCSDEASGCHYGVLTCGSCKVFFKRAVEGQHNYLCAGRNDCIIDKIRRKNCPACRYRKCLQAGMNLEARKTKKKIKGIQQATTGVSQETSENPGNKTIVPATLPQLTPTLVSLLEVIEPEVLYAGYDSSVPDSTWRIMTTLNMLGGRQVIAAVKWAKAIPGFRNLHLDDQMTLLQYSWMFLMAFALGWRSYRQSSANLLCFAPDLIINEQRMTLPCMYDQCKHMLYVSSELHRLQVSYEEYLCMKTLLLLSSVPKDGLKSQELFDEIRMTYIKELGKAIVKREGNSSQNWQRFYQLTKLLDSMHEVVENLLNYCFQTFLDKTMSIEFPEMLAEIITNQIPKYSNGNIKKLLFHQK

## Cc1cccn2c(CNCc3cccc(N(C)C)n3)cnc12 [VPC-260724]
[1]
  Transcriptional activity of GR: did not significantly impact
[2]
  Precipitation after addition of ER protein: did not exhibit precipitation at any concentration
TamR3 cells
  IC50: 28.9 ± 4.55 µM

— PMC11590367, “Characterization of novel small molecule inhibitors of estrogen receptor-activation function 2 (ER-AF2)” (Breast Cancer Research : BCR, 2024)
